The values that follow come from PMC8587938 (2021).

In assay [1] the test system is a2 (DNA, G4) GGGGTGTGGGGACAGGGGTGTGGGG
The experiment in a line: 1H NMR / NOESY titration. As to conditions: K+ 25 mM; K-phosphate buffer, pH 7.0, 25 °C, 2.0 mM a2; terminal stacking on G1-G11-G15-G25 quartet.

Assay [2] has as its system a2^12AP (DNA, G4, 2-aminopurine at 12 (replaces A)) GGGGTGTGGGGACAGGGGTGTGGGG
Kind of assay: 2-aminopurine fluorescence quenching titration. Conditions: K+ 25 mM; K-phosphate buffer, pH 7.0, 20 °C; 30 µM DNA; significant quenching only above ligand–DNA ratio 1.

Assay [3] has as its system a2^14AP (DNA, G4, 2-aminopurine at 14 (replaces A)) GGGGTGTGGGGACAGGGGTGTGGGG
The experiment in a line: 2-aminopurine fluorescence quenching titration. Conditions: K+ 25 mM; K-phosphate buffer, pH 7.0, 20 °C; 30 µM DNA; significant quenching only above ligand–DNA ratio 1.

The subject of assay [4] is a2 (DNA, G4) GGGGTGTGGGGACAGGGGTGTGGGG
The experiment in a line: fluorimetric titration (ligand fluorescence quenching). Conditions: K+ 25 mM; K-phosphate buffer, pH 7.0, 20 °C; 20 μM ligand.

`Cc1cc2c3c([n+](C)c4ccc(F)cc4c3c1)-c1cc(F)ccc1N2C`: the binding entry in assay [1], in assay [2] and in assay [3] was “yes” in each case. Besides, the Kb in assay [4] was 1.4 ± 0.2 × 10^6 M^-1.
